# Patent US20260199369A1, “COMPOUNDS FOR THE TREATMENT OF NEUROMUSCULAR DISORDERS” (NMD PHARMA A/S, priority 2022, published 2026)
# Like-named read-outs stand apart in the source and are kept apart here.
# Assays:
# CIC-1 ion channel = molecular target: T1, CIC-1 ion channel (Rattus norvegicus, UniProt P35524); assay: Electrophysiological measurement of compound inhibition of CIC-1 in rat muscle (Gm, three micro-electrodes technique); assay type: cell-based; conditions: Gm in fibres of whole rat soleus muscle, four increasing compound concentrations; read-out: Potency Range (EC50, inhibition of CIC-1 ion channel)
# T1 construct: from tissue; host or cells: whole soleus muscle of 12-14 week old Wistar rats
# T1 sequence (P35524 1-994): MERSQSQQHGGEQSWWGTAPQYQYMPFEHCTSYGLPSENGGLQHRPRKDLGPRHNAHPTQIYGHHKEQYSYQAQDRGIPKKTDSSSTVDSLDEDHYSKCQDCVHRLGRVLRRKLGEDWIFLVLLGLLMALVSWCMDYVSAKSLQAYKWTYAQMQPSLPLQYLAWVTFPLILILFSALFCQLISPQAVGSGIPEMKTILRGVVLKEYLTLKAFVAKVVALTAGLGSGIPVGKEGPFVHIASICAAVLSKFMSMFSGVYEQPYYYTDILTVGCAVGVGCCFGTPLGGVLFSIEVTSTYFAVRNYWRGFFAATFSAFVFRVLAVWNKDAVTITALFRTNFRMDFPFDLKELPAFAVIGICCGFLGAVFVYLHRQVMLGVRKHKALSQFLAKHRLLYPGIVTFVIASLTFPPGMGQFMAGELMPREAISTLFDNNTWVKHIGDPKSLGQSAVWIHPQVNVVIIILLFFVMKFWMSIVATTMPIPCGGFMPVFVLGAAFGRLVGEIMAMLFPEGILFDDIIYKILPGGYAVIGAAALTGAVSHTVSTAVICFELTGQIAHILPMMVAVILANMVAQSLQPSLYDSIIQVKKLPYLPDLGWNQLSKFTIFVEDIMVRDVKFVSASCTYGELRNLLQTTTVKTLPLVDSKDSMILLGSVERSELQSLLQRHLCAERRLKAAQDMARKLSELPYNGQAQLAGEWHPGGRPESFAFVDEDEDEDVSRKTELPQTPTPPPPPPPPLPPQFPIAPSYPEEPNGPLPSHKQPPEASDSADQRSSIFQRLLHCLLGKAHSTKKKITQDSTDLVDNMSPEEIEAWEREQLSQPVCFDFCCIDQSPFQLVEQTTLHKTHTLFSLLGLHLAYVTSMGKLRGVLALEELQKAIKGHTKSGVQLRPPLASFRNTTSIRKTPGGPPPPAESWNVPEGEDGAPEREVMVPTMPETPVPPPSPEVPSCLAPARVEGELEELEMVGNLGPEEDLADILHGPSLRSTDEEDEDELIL
# Description: Apparent CIC-1 affinity was reported by the concentration of compound at which 50% of the compound's full inhibition of CIC-1 was observed (EC50) (see also WO2019/115777).
# Experimentally, Gm was measured in individual fibres of whole rat soleus muscles using a three micro-electrodes technique described in this example and in full detail elsewhere (Riisager et al., Determination of cable parameters in skeletal muscle fibres during repetitive firing of action potentials. Journal of Physiology, 2014, 592, 4417-4429). Briefly, intact rat soleus muscles were dissected out from 12-14 week old Wistar rats and placed in an experimental chamber that was perfused with a standard Krebs Ringer solution containing 122 mM NaCl, 25 mM NaHCO3, 2.8 mM KCl, 1.2 mM KH2PO4, 1.2 mM MgSO4, 1.3 mM CaCl2), 5.0 mM D-glucose. During experiments, the solution was kept at approx. 30° C. and continuously equilibrated with a mixture of 95% O2 and 5% CO2, pH ~7.4. The experimental chamber was placed in Nikon upright microscope that was used to visualize individual muscle fibres and the three electrodes (glass pipettes filled with 2 M potassium citrate). For Gm measurements, the electrodes were inserted into the same fibre with known inter-electrode distances of 0.35-0.5 mm (V1-V2, X1) and 1.1-1.5 mm (V1-V3, X3). The membrane potential of the impaled muscle fibre was recorded by all electrodes. Two of the electrodes were furthermore used to inject 50 ms current pulses of −30 nA. […] The steady state voltage deflection at each distance was divided by the magnitude of current injected (−30 nA) and the resulting transfer resistances were plotted against inter-electrode distance and the data was fitted to a mono-exponential function from which Gm could be calculated using linear cable theory.
# To establish a dose response relationship, Gm was first determined in 10 muscle fibres in the absence of compound and then at four increasing compound concentrations with Gm determinations in 5-10 fibres at each concentration. The average Gm values at each concentration were plotted against compound concentration and the data was fitted to sigmoidal function to obtain an EC50 value.
# [1] = system: isolated rat soleus muscles; assay: Measurement of force in an in vitro model: recovery of contractile force of isolated rat soleus nerve-muscle preparation after tubocurarine; conditions: 40 min, read-out: Point increase (%): percentage increase of initial force that was restored; for activation at 50 µM: 50 μM of test compound
# Description: The current disclosure relates to compounds that inhibit CIC-1 ion channels and increase muscle excitability and thereby improve muscle function in clinical conditions where muscle activation is failing. Such conditions result in loss of contractile function of skeletal muscle, weakness and excessive fatigue. In this series of experiments the compounds were tested for their ability to restore contractile function of isolated rat muscle when the neuromuscular transmission had been compromised akin to neuromuscular disorders.
# Experimentally, soleus muscles from 4-5 wk old rats were isolated with the motor nerve remaining attached. The nerve-muscle preparations were mounted in experimental setups that enabled electrical stimulation of the motor nerve. Stimulation of the motor nerve led to activation of the muscle fibres and ensuing force production that was recorded. The nerve-muscle preparations were also in these experiments incubated in the standard Krebs Ringer (see example 15) and the solution was heated to 30° C. and continuously equilibrated with a mixture of 95% O2 and 5% CO2, pH ~7.4.
# After mounting the nerve-muscle preparation in the experimental setup, the contractile function of the muscle was initially assessed under the control conditions. Sub-maximal concentration of tubocurarine (115 nM), an acetylcholine receptor antagonist, was then added to the experimental bath to impose partial inhibition of the ability of the motor nerve to activate the muscle fibres. The experimental condition mimics the failing neuromuscular transmission in a range of neuromuscular disorders. After addition of tubocurarine the contractile force declined over the next 90 minutes to 10-50% of the control force. The test compound was then added to obtain the required compound concentration in the bath and the contractile force recovered was measured. To quantify the ability of the compound to restore force the percentage of the initial force that was restored was determined after 40 mins of compound exposure and the point increase is reported in Tables 3 to 7.
# [2] = tubocurarine 115 nM, after 40 mins of compound exposure
# [3] = 10 μM of test compound, tubocurarine 115 nM, after 40 mins of compound exposure
# [4] = 25 μM of test compound, tubocurarine 115 nM, after 40 mins of compound exposure
EC50 (CIC-1 ion channel) [nM],Compound,"activation at 10 µM [1, 3] [%]",other results
5000 to 15000,"COc1c(Cl)cc2c(c1C(=O)O)OCCO2 [Compound A-1, 7-Chloro-6-methoxy-2,3-dihydro-1,4-benzodioxine-5-carboxylic acid]",–,"activation at 50 µM [1, 2]: 31%"
200 to 1000,"COc1c(Cl)cc2c(c1C(=O)O)OCCN2C [Compound A-2, 6-Chloro-7-methoxy-4-methyl-3,4-dihydro-2H-1,4-benzoxazine-8-carboxylic acid]",32,–
1000 to 5000,"CN1CCOc2c1cc(F)c(Cl)c2C(=O)O [Compound A-4, 7-Chloro-6-fluoro-4-methyl-3,4-dihydro-2H-1,4-benzoxazine-8-carboxylic acid]",36,–
5000 to 15000,"O=C(O)c1c(F)cc(Cl)c2c1OCCN2 [Compound A-5, 5-Chloro-7-fluoro-3,4-dihydro-2H-1,4-benzoxazine-8-carboxylic acid]",–,"activation at 50 µM [1, 2]: 44%"
5000 to 15000,"O=C(O)c1c(F)c(Cl)cc2c1OCCN2 [Compound A-6, 6-Chloro-7-fluoro-3,4-dihydro-2H-1,4-benzoxazine-8-carboxylic acid]",19,–
200 to 1000,"CN1CCOc2c1cc(Cl)c(F)c2C(=O)O [Compound A-7, 6-Chloro-7-fluoro-4-methyl-3,4-dihydro-2H-1,4-benzoxazine-8-carboxylic acid]",–,–
1000 to 5000,"CN1CCN(C)c2c1cc(Cl)c(F)c2C(=O)O [Compound A-8, 7-Chloro-6-fluoro-1,4-dimethyl-1,2,3,4-tetrahydroquinoxaline-5-carboxylic acid]",26,–
1000 to 5000,"CN1CC(C)(C)Oc2c1cc(Cl)c(F)c2C(=O)O [Compound A-9, 6-Chloro-7-fluoro-2,2,4-trimethyl-3,4-dihydro-2H-1,4-benzoxazine-8-carboxylic acid]",37,–
1000 to 5000,"CN1CCCOc2c1cc(Cl)c(F)c2C(=O)O [Compound A-13, 7-Chloro-8-fluoro-5-methyl-2,3,4,5-tetrahydro-1,5-benzoxazepine-9-carboxylic acid]",30,–
5000 to 15000,"CC(C)CCN1CCOc2c1cc(Cl)c(F)c2C(=O)O [Compound A-17, 6-chloro-7-fluoro-4-(3-methylbutyl)-3,4-dihydro-2H-1,4-benzoxazine-8-carboxylic acid]",–,"activation at 50 µM [1, 2]: 29%"
1000 to 5000,"CCN1CCOc2c1cc(Cl)c(F)c2C(=O)O [Compound A-18, 6-Chloro-4-ethyl-7-fluoro-3,4-dihydro-2H-1,4-benzoxazine-8-carboxylic acid]",34,–
1000 to 5000,"CN1CCSc2c1cc(Cl)c(F)c2C(=O)O [Compound A-19, 6-chloro-7-fluoro-4-methyl-3,4-dihydro-2H-1,4-benzothiazine-8-carboxylic acid]",28,–
1000 to 5000,"CCCN1CCOc2c1cc(Cl)c(F)c2C(=O)O [Compound A-21, 6-Chloro-7-fluoro-4-propyl-3,4-dihydro-2H-1,4-benzoxazine-8-carboxylic acid]",–,"activation at 25 µM [1, 4]: 29%"
200 to 1000,"COc1c(Cl)cc2c(c1C(=O)O)SCCN2C [Compound A-29, 6-Chloro-7-methoxy-4-methyl-3,4-dihydro-2H-1,4-benzothiazine-8-carboxylic acid]",43,–
1000 to 5000,"COc1c(Cl)cc2c(c1C(=O)O)OCCN2Cc1ccsc1 [Compound A-36, 6-Chloro-7-methoxy-4-[(thiophen-3-yl)methyl]-3,4-dihydro-2H-1,4-benzoxazine-8-carboxylic acid]",–,"activation at 25 µM [1, 4]: 36%"
200 to 1000,"O=C(O)c1c(F)c(Cl)cc2c1N(Cc1ccsc1)CCO2 [Compound A-54, 7-Chloro-6-fluoro-4-[(thiophen-3-yl)methyl]-3,4-dihydro-2H-1,4-benzoxazine-5-carboxylic acid]",28,–
200 to 1000,"COc1ccc(CN2CCOc3cc(Cl)c(F)c(C(=O)O)c32)cc1 [Compound A-58, 7-Chloro-6-fluoro-4-[(p-methoxyphenyl)methyl]-3,4-dihydro-2H-1,4-benzoxazine-5-carboxylic acid]",35,–
200 to 1000,"Cc1ccc(CN2CCOc3cc(Cl)c(F)c(C(=O)O)c32)cc1 [Compound A-60, 7-Chloro-6-fluoro-4-[(p-tolyl)methyl]-3,4-dihydro-2H-1,4-benzoxazine-5-carboxylic acid]",17,–

Compound,EC50 (CIC-1 ion channel) [nM],"activation at 10 µM [1, 3] [%]",other results
"CN1CCOc2cc(Cl)c(F)c(C(=O)O)c21 [Compound A-3, 7-Chloro-6-fluoro-4-methyl-3,4-dihydro-2H-1,4-benzoxazine-5-carboxylic acid]",1000 to 5000,–,activation at 10 µM [1]: 41%
"CCN1CCOc2c1cc(Cl)c(OC)c2C(=O)O [Compound A-28, 6-Chloro-4-ethyl-7-methoxy-3,4-dihydro-2H-1,4-benzoxazine-8-carboxylic acid]",200 to 1000,–,activation at 25 µM [1]: 36%
"COc1c(F)cc2c(c1C(=O)O)OCCN2C [Compound A-30, 6-Fluoro-7-methoxy-4-methyl-3,4-dihydro-2H-1,4-benzoxazine-8-carboxylic acid]",200 to 1000,–,activation at 10 µM [1]: 39%
